Values quoted from earlier work as cited in article PMC7373161, “Impact of Food and Drink Administration Vehicles on Paediatric Formulation Performance: Part 1—Effects on Solubility of Poorly Soluble Drugs” (AAPS PharmSciTech, 2020).

- isoelectric point (pI): 4.3 pH
SMILES: Nc1ccc(O)c(C(=O)O)c1 [mesalazine]
